“Also recorded” adds a separate entry of the source.
Legend:
[1] = Body weight, side effects and adverse reactions observed over the 57-day rat CCI study; conditions: systemic, sc 0.02 mg/kg every day, 57-day study
[2] = system: rat chronic constriction injury (CCI) model; assay: Thermal Paw Withdrawal Latency Test (thermal hyperalgesia) in rat CCI model of neuropathic pain; conditions: systemic, subcutaneous 0.02 mg/kg every day from day 7 post-surgery; p<0.05
[3] = system: rat chronic constriction injury (CCI) model; assay: von Frey Monofilament Test (mechanical/tactile allodynia) in rat CCI model of neuropathic pain; conditions: systemic, subcutaneous 0.02 mg/kg every day from day 7 post-surgery

Compound | overt side effects or adverse reactions at the site of injection [1] | thermal paw withdrawal responses/latencies relative to both PBS and unloaded PLA pellet [2] | mechanical allodynia (paw withdrawal threshold) relative to either PBS or unloaded pellet [3]
C[C@@H]1C[C@H]2[C@@H]3CCC4=CC(=O)C=C[C@]4(C)[C@@]3(F)[C@@H](O)C[C@]2(C)[C@@]1(O)C(=O)CO [dexamethasone, (8S, 9R, 10S, 11S, 13S, 14S, 16R, 17R)-9-Fluoro-11,17-dihydroxy-17-(2-hydroxyacetyl)-10,13,16-trimethyl-6,7,8,11,12,14,15,16-octahydro-cyclopenta[a]phenanthren-3-one] | no overt side effects or adverse reactions at the site of injection; also recorded: did not cause any overt side effects or adverse reactions | – | –
Clc1cccc(Cl)c1N=C1NCCN1 [clonidine] | no overt side effects or adverse reactions at the site of injection; also recorded: did not cause any overt side effects or adverse reactions | increased thermal paw withdrawal latencies on various test days | no effect on paw withdrawal threshold responses
